# Key:
# [1] = test system: SARS-CoV-2; test: microbe, parasite or virus in culture; format: cell-based; conditions: Severe acute respiratory syndrome coronavirus 2, HepG2, read-out: EC50 against SARS-CoV-2
# [2] = in vitro; conditions: human
# [3] = test system: H5N1 virus; test: microbe, parasite or virus in culture; format: cell-based, H5N1 influenza virus; conditions: for EC50: H5N1, A549, read-out: EC50 against H5N1 virus; for inhibition at 0.0125 µg/mL: H5N1, A549, 12.5 ng/mL; for inhibition at 0.05 µg/mL: H5N1, A549, 50 ng/mL; for inhibition at 0.1 µg/mL: H5N1, A549, 100 ng/mL; for inhibition at 0.5 µg/mL: H5N1, A549, 500 ng/mL
# [4] = test system: EBOV (Ebola virus); test: microbe, parasite or virus in culture; format: cell-based; conditions: Zaire ebolavirus; for EC50: A549, read-out: EC50 against EBOV; for inhibition at 0.0125 µg/mL: 12.5 ng/mL; for inhibition at 0.05 µg/mL: 50 ng/mL; for inhibition at 0.1 µg/mL: 100 ng/mL; for inhibition at 0.5 µg/mL: 500 ng/mL
# [5] = test system: VSV (vesicular stomatitis virus); test: microbe, parasite or virus in culture; format: cell-based; conditions: for EC50: A549, read-out: EC50 against VSV; for inhibition at 0.0125 µg/mL: A549, 12.5 ng/mL; for inhibition at 0.05 µg/mL: A549, 50 ng/mL; for inhibition at 0.1 µg/mL: A549, 100 ng/mL; for inhibition at 0.5 µg/mL: A549, 500 ng/mL
# [6] = test system: HIV; test: microbe, parasite or virus in culture; format: cell-based; conditions: for EC50: Human immunodeficiency virus 1, A549
# [7] = test system: A549 cells; test: cells; conditions: Homo sapiens, A549, read-out: % Inhibition against A549 cells
# [8] = CC50 against the host cell line A549
# [9] = Influenza A virus, read-out: % Inhibition against H5N1 virus
# [10] = A549, read-out: % Inhibition against EBOV
# [11] = read-out: % Inhibition against VSV
structure (smiles),measurement,setting,value
"COc1cc2c(OC3O[C@H](C)[C@@H](O)[C@H](O)[C@H]3O)c3c(c(-c4ccc5c(c4)OCO5)c2cc1OC)C(=O)OC3 (stereo partly shown) [Compound 26b, Patentiflorin A]",EC50,[1],67.2 nM
same,CC50,[2]; CC50 (nM),347 nM
same,CC50,[2]; [8],386 nM
same,EC50,[3]; Influenza A virus,4.48 nM
same,EC50,[4],54.8 nM
same,EC50,[5],42.5 nM
same,EC50,[6],21.1 nM
"COc1cc2c(OC3O[C@H](C)[C@H](O)[C@H](O)[C@H]3O)c3c(c(-c4ccc5c(c4)OCO5)c2cc1OC)C(=O)OC3 (stereo partly drawn) [Compound 26e, 7-O-β-D-fucopyranosyldiphyllin]",EC50,[1],30.4 nM
same,CC50,[2]; CC50 (nM),> 9500 nM
same,inhibition at 1 µg/mL,"[3]; Influenza A virus, H5N1, A549, 1000 ng/mL, read-out: % Inhibition against H5N1 virus",48.5%
same,inhibition at 5 µg/mL,"[3]; Influenza A virus, H5N1, A549, 5000 ng/mL, read-out: % Inhibition against H5N1 virus",88.9%
same,anti-HIV activity (inhibition),[6]; at 9496.9 nM,no inhibition
"C=CCOC(=O)O[C@@H]1COC(Oc2c3c(c(-c4ccc5c(c4)OCO5)c4cc(OC)c(OC)cc24)C(=O)OC3)[C@H](O)[C@H]1OC(C)=O (stereo partly drawn) [Compound 28ab1, 4″-O-allyl oxycarbonyl-3″-acetyl-7-O-β-D-xylosyldiphyllin]",EC50,[1],26.3 nM
same,CC50,[2]; CC50 (nM),513 nM
same,CC50,[2]; [8],190 nM
same,inhibition at 0.0125 µg/mL,[3]; [9],91.8%
same,inhibition at 0.05 µg/mL,[3]; [9],86%
same,EC50,[3]; Influenza A virus,5.05 nM
same,EC50,[4],18.9 nM
same,inhibition at 0.0125 µg/mL,[4]; [10],81%
same,inhibition at 0.05 µg/mL,[4]; [10],82.4%
same,inhibition at 0.0125 µg/mL,[5]; [11],85.9%
same,inhibition at 0.05 µg/mL,[5]; [11],83.5%
same,EC50,[5],3.78 nM
same,inhibition at 0.0125 µg/mL,[7],35.5%
same,inhibition at 0.05 µg/mL,[7],40.9%
"COc1cc2c(OC3O[C@H](C)[C@@H](O)[C@H](OC(=O)CC#N)[C@H]3O)c3c(c(-c4ccc5c(c4)OCO5)c2cc1OC)C(=O)OC3 (stereo partly drawn) [Compound 31j, 3″-O-cyanoacetyl-7-O-β-D-patentiflorin A]",EC50,[1],10.3 nM
same,CC50,[2]; CC50 (nM),6.68 nM
same,CC50,[2]; [8],6.68 nM
same,% Inhibition against H5N1 virus,[3]; 50 ng/mL,98.2%
same,inhibition at 0.0125 µg/mL,[3]; [9],97.5%
same,inhibition at 0.05 µg/mL,[3]; [9],87.6%
same,inhibition at 0.25 µg/mL,"[3]; Influenza A virus, H5N1, A549, 250 ng/mL, read-out: % Inhibition against H5N1 virus",97.9%
same,EC50,[3]; Influenza A virus,0.84 nM
same,EC50,[4],0.84 nM
same,inhibition at 0.0125 µg/mL,[4]; [10],93.9%
same,inhibition at 0.05 µg/mL,[4]; [10],96.6%
same,inhibition at 0.0125 µg/mL,[5]; [11],98.4%
same,inhibition at 0.05 µg/mL,[5]; [11],99.9%
same,EC50,[5],0.91 nM
same,inhibition at 0.0125 µg/mL,[7],77%
same,inhibition at 0.05 µg/mL,[7],93.8%
same,EC50,[6],0.91 nM
"COc1cc2c(OC3O[C@H](CO)[C@H]4OC(C)(C)O[C@@H]4[C@H]3O)c3c(c(-c4ccc5c(c4)OCO5)c2cc1OC)C(=O)OC3 (stereo partly drawn) [Compound 32a, 3″, 4″-Acetonide-4-O-β-D-glucopyranosyldiphyllin]",EC50,[1],2.95 nM
same,CC50,[2]; CC50 (nM),52.7 nM
same,CC50,[2]; [8],61.6 nM
same,EC50,[3]; Influenza A virus,0.63 nM
same,EC50,[4],1.2 nM
same,EC50,[5],18.1 nM
"COc1cc2c(OC3O[C@H](CO)[C@@H]4OC(C)(C)O[C@@H]4[C@H]3O)c3c(c(-c4ccc5c(c4)OCO5)c2cc1OC)C(=O)OC3 (stereo partly drawn) [Compound 32b, 3″, 4″-Acetonide-4-O-β-D-galactopyranosyldiphyllin]",EC50,[1],3.01 nM
same,CC50,[2]; CC50 (nM),52.7 nM
same,CC50,[2]; [8],30.7 nM
same,inhibition at 0.01 µg/mL,"[3]; Influenza A virus, H5N1, A549, 10 ng/mL, read-out: % Inhibition against H5N1 virus",91.7%
same,inhibition at 0.05 µg/mL,[3]; [9],88.1%
same,EC50,[3]; Influenza A virus,0.77 nM
same,EC50,[4],0.85 nM
same,inhibition at 0.01 µg/mL,"[4]; A549, 10 ng/mL, read-out: % Inhibition against EBOV",86.4%
same,inhibition at 0.05 µg/mL,[4]; [10],92.7%
same,inhibition at 0.01 µg/mL,"[5]; A549, 10 ng/mL, read-out: % Inhibition against VSV",90.9%
same,inhibition at 0.05 µg/mL,[5]; [11],99.6%
same,EC50,[5],3.15 nM
same,inhibition at 0.01 µg/mL,[7],40.5%
same,inhibition at 0.05 µg/mL,[7],76%
"COc1cc2c(OC3O[C@@H]4COC(C)(C)O[C@@H]4[C@H](O)[C@H]3O)c3c(c(-c4ccc5c(c4)OCO5)c2cc1OC)C(=O)OC3 (stereo partly drawn) [Compound 32c, 4″,6″-Acetonide-4-O-β-D-galactopyranosyldiphyllin]",EC50,[1],50.8 nM
same,CC50,[2]; CC50 (nM),52.7 nM
same,CC50,[2]; [8],1040 nM
same,inhibition at 0.1 µg/mL,[3]; [9],65.1%
same,inhibition at 0.5 µg/mL,[3]; [9],88.1%
same,EC50,[3]; Influenza A virus,5.2 nM
same,EC50,[4],20.3 nM
same,inhibition at 0.1 µg/mL,[4]; [10],85.5%
same,inhibition at 0.5 µg/mL,[4]; [10],88.2%
same,inhibition at 0.1 µg/mL,[5]; [11],48.9%
same,inhibition at 0.5 µg/mL,[5]; [11],88.1%
same,EC50,[5],124 nM
same,inhibition at 0.1 µg/mL,[7],2.9%
same,inhibition at 0.5 µg/mL,[7],39.7%
"COc1cc2c(OC3O[C@H](CO)[C@H](O)[C@@H]4OC(C)(C)O[C@@H]34)c3c(c(-c4ccc5c(c4)OCO5)c2cc1OC)C(=O)OC3 (stereo partly drawn) [Compound 32d, 2″,3″-Acetonide-4-O-β-D-galactopyranosyldiphyllin]",EC50,[1],80.4 nM
same,CC50,[2]; CC50 (nM),52.7 nM
same,CC50,[2]; [8],1350 nM
same,inhibition at 0.1 µg/mL,[3]; [9],19.3%
same,inhibition at 0.5 µg/mL,[3]; [9],83.5%
same,EC50,[3]; Influenza A virus,200 nM
same,EC50,[4],396 nM
same,inhibition at 0.1 µg/mL,[4]; [10],65.5%
same,inhibition at 0.5 µg/mL,[4]; [10],82.7%
same,inhibition at 0.1 µg/mL,[5]; [11],100%
same,inhibition at 0.5 µg/mL,[5]; [11],71.7%
same,EC50,[5],286 nM
same,inhibition at 0.1 µg/mL,[7],-2%
same,inhibition at 0.5 µg/mL,[7],24.3%

# Source: patent publication US11638713B2, “Patentiflorin A analogs as antiviral agents” (priority 2019, dated 2023)
